Results as given in US20250340561A1, “QUINAZOLINE COMPOUND FOR INDUCING DEGRADATION OF G12D MUTANT KRAS PROTEIN” (Astellas Pharma Inc., priority 2021, published 2025).

molecular target: T1, KRAS G12D (Homo sapiens, UniProt P01116, G12D); assay: Test Example 1-2: KRAS degradation action in AsPC-1, Cell ELISA; format: cell-based; conditions: AsPC-1 cells, overnight treatment, corrected with β-actin, 0% = 10 μM Example No. 26 (Example No. 8 for Example Nos. 74 and 75)
T1 construct: host or cells: AsPC-1 human pancreatic cancer cells
Experimental: Test Example 1-2: Evaluation of KRAS Degradation Action on Human G12D Mutant KRAS-Positive Pancreatic Cancer Line AsPC-1
The KRAS degradation action of test compounds was evaluated by measuring the expression levels of KRAS G12D by Cell ELISA.
[…] As for the cell culture conditions, a RPMI 1640 medium containing 10% fetal bovine serum was used in the presence of 5% CO2 at 37° C. The next day, the test compounds (10 points having final concentrations in the range of 10 μM to 0.3 nM), the compound of Example No. 26 (Example No. 8 for Example Nos. 74 and 75) of a final concentration of 10 μM as a positive control and DMSO, which was the solvent for the test compounds, as a negative control were diluted 500-fold with a fresh medium and were added at 20 μL per well. The cells were cultured overnight.
The next day, the culture supernatant was removed, and 4% paraformaldehyde phosphate buffer (from FUJIFILM Wako Pure Chemical Corporation) was added at 20 μL per well. The plate was allowed to stand for 30 minutes at room temperature to thus immobilize the cells. Then, the supernatant was removed, and 0.1% Triton X-100 (from Amersham Biosciences)-containing PBS was added at 20 μL per well. After allowing to stand for 10 minutes at room temperature, the supernatant was removed. PBS was added at 25 μL per well, and the supernatant was removed to thus wash each well. The washing was performed twice in total. Next, the supernatant was removed, and 0.5% sodium dodecyl sulfate (SDS; from Invitrogen)-containing PBS was added at 20 μL per well. After allowing to stand at room temperature for 10 minutes, the supernatant was removed by centrifugation (using a centrifugal dehydrator machine, the supernatant was removed by the same method hereinafter). PBS was added at 25 μL per well, and the supernatant was removed to thus wash each well. The washing was performed twice in total. The supernatant was removed by centrifugation, and a blocking solution (Intercept Blocking Buffer) was added at 20 μL per well. After allowing to stand for 30 minutes at room temperature, the supernatant was removed by centrifugation, and a solution obtained by diluting an anti-Ras (G12D Mutant Specific) antibody and an anti-3-actin antibody 1,000-fold with a blocking solution was added at 20 μL per well as a primary antibody. The plate was allowed to stand overnight at 4° C.
The next day, the plate was centrifuged to remove the supernatant. PBS was added at […], and the supernatant was removed to thus wash each well. The washing was performed twice in total. The supernatant was removed by centrifugation, and a solution obtained by diluting Donkey anti-Mouse IgG H&L (TRDye 680RD) (from Li—COR Biosciences) and Goat anti-Rabbit IgG H&L (IRDye 800CW) (from Li—COR Biosciences) 1,000-fold with a blocking solution was added at 20 μL per well as a secondary antibody. After allowing to stand for 1 hour at room temperature, the supernatant was removed. PBS was added at 25 μL per well, and the supernatant was removed to thus wash each well. The washing was performed twice in total. After removing the supernatant by centrifuging the plate, the plate was dried as it was with air at room temperature for 2 hours or more, and the 700-nm and 800-nm fluorescent signals were measured with Aerius (from LI-COR Biosciences).
With the signaling value at the time of addition of DMSO corrected with the signaling value of β-actin taken as 100% and with the signaling value at the time of addition of 10 μM of the compound of Example No. 26 taken as 0%, the 50% degradation values (DC50) of the amounts of KRAS were calculated by Sigmoid-Emax model nonlinear regression analysis. The molecular weights of the test compounds were calculated as the molecular weights of the trihydrochloride for Example No. 30, the tetrahydrochloride for Example No. 46 and the free forms forming no salt for the remaining Example Nos. The results for some test compounds of the formula (I) are shown in Table 2.

T1 sequence (P01116 1-188 isoform P01116-2 G12D): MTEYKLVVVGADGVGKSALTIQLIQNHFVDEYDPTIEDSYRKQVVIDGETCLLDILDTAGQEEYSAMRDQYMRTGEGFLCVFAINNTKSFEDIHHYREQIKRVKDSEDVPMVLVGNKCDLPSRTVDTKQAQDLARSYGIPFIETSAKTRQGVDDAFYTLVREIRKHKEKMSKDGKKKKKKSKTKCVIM

SMILES	DC50 [nM]
CCn1nccc1-c1ccc([C@H](CO)NC(=O)[C@@H]2C[C@@H](O)CN2C(=O)[C@H](C(C)C)n2cc(-c3ccc(COc4c(-c5c(C)c(F)cc6[nH]ncc56)c(C5CC5)cc5c(N6C[C@@H]7C[C@H]6CN7)nc(OC[C@H](C)OC)nc45)cc3)nn2)cc1 [Example 70]	14
Cc1c(F)cc2[nH]ncc2c1-c1c(C2CC2)cc2c(N3C[C@@H]4C[C@H]3CN4)nc(OC3CCOCC3)nc2c1OCc1ccc(-c2cn([C@H](C(=O)N3C[C@H](O)C[C@H]3C(=O)N[C@@H](CO)c3ccccc3F)C(C)C)nn2)cc1 [Example 30]	157
Cc1ncsc1-c1ccc([C@H](CO)NC(=O)[C@@H]2C[C@@H](O)CN2C(=O)[C@H](C(C)C)n2cc(-c3ccc(COc4c(-c5c(C)c(F)cc6[nH]ncc56)c(C5CC5)cc5c(N6C[C@@H]7C[C@H]6CN7)nc(OCC6(CO)CCOCC6)nc45)cc3)nn2)cc1 (atropisomer, axis not shown) [Example 36]	17
Cc1c(F)cc2[nH]ncc2c1-c1c(C2CC2)cc2c(N3C[C@@H]4C[C@H]3CN4)nc(OC3CCOCC3)nc2c1OCc1ccc(-c2cn([C@H](C(=O)N3C[C@H](O)C[C@H]3C(=O)N[C@@H](CO)c3cccc(F)c3)C(C)C)nn2)cc1 [Example 63]	70
CO[C@@H](C)COc1nc(N2C[C@@H]3C[C@H]2CN3)c2cc(C3CC3)c(-c3c(C)c(F)cc4[nH]ncc34)c(OCc3ccc(-c4cn([C@H](C(=O)N5C[C@H](O)C[C@H]5C(=O)N[C@@H](CO)c5ccc(N6CCOC6=O)cc5)C(C)C)nn4)cc3)c2n1 [Example 59]	45
Cc1ncsc1-c1ccc([C@H](CO)NC(=O)[C@@H]2C[C@@H](O)CN2C(=O)[C@H](C(C)C)n2cc(-c3ccc(COc4c(-c5c(C)c(F)cc6[nH]ncc56)c(C5CC5)cc5c(N6C[C@@H]7C[C@H]6CN7)nc(O[C@H]6CCN(CCO)C6)nc45)cc3)nn2)cc1 [Example 31]	138
CC[C@@H](C)Oc1nc(N2C[C@@H]3C[C@H]2CN3)c2cc(C3CC3)c(-c3c(C)c(F)cc4[nH]ncc34)c(OCc3ccc(-c4cn([C@H](C(=O)N5C[C@H](O)C[C@H]5C(=O)N[C@@H](CO)c5ccc(-c6scnc6C)cc5)C(C)C)nn4)cc3)c2n1 [Example 43]	10
Cc1ncsc1-c1ccc([C@H](CO)NC(=O)[C@@H]2C[C@@H](O)CN2C(=O)[C@H](C(C)C)n2cc(-c3ccc(COc4c(-c5c(C)c(F)cc6[nH]ncc56)c(C5CC5)cc5c(N6C[C@@H]7C[C@H]6CN7)nc(OC[C@@H]6CCOC6)nc45)cc3)nn2)cc1 [Example 50]	11
Cc1ncsc1-c1ccc([C@H](CO)NC(=O)[C@@H]2C[C@@H](O)CN2C(=O)[C@H](C(C)C)n2cc(-c3ccc(COc4c(-c5c(C)c(F)cc6[nH]ncc56)c(C5CC5)cc5c(N6C[C@@H]7C[C@H]6CN7)nc(OC[C@H](C)N6CCOCC6)nc45)cc3)nn2)cc1 [Example 65]	14
CO[C@H](C)[C@@H](C)Oc1nc(N2C[C@@H]3C[C@H]2CN3)c2cc(C3CC3)c(-c3c(C)c(F)cc4[nH]ncc34)c(OCc3ccc(-c4cn([C@H](C(=O)N5C[C@H](O)C[C@H]5C(=O)N[C@@H](CO)c5ccc(-c6scnc6C)cc5)C(C)C)nn4)cc3)c2n1 [Example 39]	6
Cc1ncsc1-c1ccc([C@H](CO)NC(=O)[C@@H]2C[C@@H](O)CN2C(=O)[C@H](C(C)C)n2cc(-c3ccc(COc4c(-c5c(C)c(F)cc6[nH]ncc56)c(C5CC5)cc5c(N6C[C@@H]7C[C@H]6CN7)nc(O[C@H](C)CN6CCOCC6)nc45)cc3)nn2)cc1 [Example 45]	15
CO[C@@H](C)COc1nc(N2C[C@@H]3C[C@H]2CN3)c2cc(C3CC3)c(-c3c(C)c(F)cc4[nH]ncc34)c(OCc3ccc(-c4cn([C@H](C(=O)N5C[C@H](O)C[C@H]5C(=O)N[C@@H](CO)c5ccc(-c6ocnc6C)cc5)C(C)C)nn4)cc3)c2n1 [Example 72]	16
Cc1ncsc1-c1ccc([C@H](CO)NC(=O)[C@@H]2C[C@@H](O)CN2C(=O)[C@H](C(C)C)n2cc(-c3ccc(COc4c(-c5c(C)c(F)cc6[nH]ncc56)c(C5CC5)cc5c(N6C[C@@H]7C[C@H]6CN7)nc(O[C@H](C)[C@@H](C)O)nc45)cc3)nn2)cc1 (atropisomer, axis not shown) [Example 37]	25
Cc1ncsc1-c1ccc([C@H](CO)NC(=O)[C@@H]2C[C@@H](O)CN2C(=O)[C@H](C2CC2)n2cc(-c3ccc(COc4c(-c5c(C)c(F)cc6[nH]ncc56)c(C5CC5)cc5c(N6C[C@@H]7C[C@H]6CN7)nc(OC6CCOCC6)nc45)cc3)nn2)cc1 [Example 73]	134
Cc1ncsc1-c1ccc([C@H](CO)NC(=O)[C@@H]2C[C@@H](O)CN2C(=O)[C@H](C(C)C)n2cc(-c3ccc(COc4c(-c5c(C)c(F)cc6[nH]ncc56)c(C5CC5)cc5c(N6C[C@@H]7C[C@H]6CN7)nc(O[C@H]6CCN(CC(F)F)C6)nc45)cc3)nn2)cc1 [Example 33]	30
Cc1c(F)cc2[nH]ncc2c1-c1c(C2CC2)cc2c(N3C[C@@H]4C[C@H]3CN4)nc(OC3CCOCC3)nc2c1OCc1ccc(-c2cn([C@H](C(=O)N3C[C@H](O)C[C@H]3C(=O)N[C@@H](CO)c3cccc(S(C)(=O)=O)c3)C(C)C)nn2)cc1 [Example 67]	840
Cc1ncsc1-c1ccc([C@H](CO)NC(=O)[C@@H]2C[C@@H](O)CN2C(=O)[C@H](C(C)C)n2cc(-c3ccc(COc4c(-c5c(C)c(F)cc6[nH]ncc56)c(C5CC5)cc5c(N6C[C@@H]7C[C@H]6CN7)nc(O[C@H](C)CN(C)C)nc45)cc3)nn2)cc1 [Example 46]	37
CO[C@@H](C)COc1nc(N2C[C@@H]3C[C@H]2CN3)c2cc(C3CC3)c(-c3c(C)c(F)cc4[nH]ncc34)c(OCc3ccc(-c4cn([C@H](C(=O)N5C[C@H](O)C[C@H]5C(=O)N[C@@H](CO)c5ccc(-c6scnc6C)cc5)C(C)C)nn4)cc3)c2n1 [Example 48]	4
Cc1ncsc1-c1ccc([C@H](CO)NC(=O)[C@@H]2C[C@@H](O)CN2C(=O)[C@H](C(C)C)n2cc(-c3ccc(COc4c(-c5c(C)c(F)cc6[nH]ncc56)c(C5CC5)cc5c(N6C[C@@H]7C[C@H]6CN7)nc(OCC67CCCN6CCC7)nc45)cc3)nn2)cc1 [Example 44]	111
COC[C@H](CN1CCOCC1)Oc1nc(N2C[C@@H]3C[C@H]2CN3)c2cc(C3CC3)c(-c3c(C)c(F)cc4[nH]ncc34)c(OCc3ccc(-c4cn([C@H](C(=O)N5C[C@H](O)C[C@H]5C(=O)N[C@@H](CO)c5ccc(-c6scnc6C)cc5)C(C)C)nn4)cc3)c2n1 [Example 55]	24
